According to patent US7635722B1, “Chemical induced intracellular hyperthermia” (priority 1998, dated 2009):

Experiments:
[1] = tested on: hepatic ischemic injury; experiment: hepatic ischemic injury by Pringle's maneuver after DNP pretreatment; format: in vivo; conditions: Pringle's maneuver (FIG. 22)
Source text: (§1) This method of DNP induced preconditioning could be used to decrease intimal thickening and restenosis after angioplasty, improve ischemia/reperfusion injury in organ and tissue transplantation, and improve surgical outcome of procedures that require temporary or prolonged occlusion of arterial blood flow.

[2] = man and animals accidentally intoxicated; cited from earlier work
[3] = tested on: Echinococcus multilocularis; experiment: DNP with glucagon, hydatid disease of the liver (Example 1); format: in vivo, human
Method: Pretreatment protocol: the patient was given 10 mg diazepam by mouth and dressed into a modified wet suit. The wet suit was cut lengthwise at the arms and legs. Velcro strappings were attached at the cuttings for closure, rapid removal or exposure of the limb(s). After placement of monitoring sensors, they were started on IV fluids of 5% dextrose, 0.5 normal saline with 7 meq K^+, infused at an initial rate of 12 cc/kg/hr. Evaporative heat loss from the head was minimized by a plastic shower cap and towels. A 401AC temperature probe (YSI Incorporated, Yellow Springs, Ohio) was inserted 11 cm. into the rectum. […] A TEEM 100 Metabolic Analysis System (AeroSport Inc., Ann Arbor, Mich.), with a modified face mask and oxygen delivery system (38-40% 02 saturation) for patient comfort and increased accuracy, was attached to the patient. Oxygen consumption (V02), carbon dioxide production (VC02), expired air volume (VE), heart rate (HR), and Kcal of heat produced were measured in 20 second intervals and extrapolated to minute or hourly rates.
Treatment procedure: After baseline recordings of 10 minutes, the required amount of DNP to raise the initial V02 to achieve a temperature in the patient of 40° C. was calculated as described under “DNP dosage required to increase V02”. The patient was given an initial dose of 1 mg/kg of DNP, infused intravenously over a 3 minute period. […]

[4] = tested on: breast lesion; experiment: DNP enhanced infrared imaging, breast carcinoma (Example 8); format: in vivo, human
Method: Prediagnostic protocol: the patient was disrobed to the waist and sat with their hands interlocked over their head for a five minute equilibration period in a draft free, thermally controlled room—kept between 18° C. and 20° C. […] A baseline of 4 images consisting of an anterior, undersurface and 2 lateral views of each breast were generated by an integrated infrared imaging station consisting of a scanning mirror optical system containing a mercury-cadmium-telluride detector (Bales Scientific, CA). […] Images were stored on retrievable laser discs.
Diagnostic treatment protocol: after the above baseline studies were performed, the patient was given an initial intravenous dose of 1 mg/kg DNP and observed for a period of 20 minutes. An additional 2 mg/kg of DNP was then administered and 30 minutes thereafter, they were taken to the thermally controlled room for repeat DNP-enhanced infrared imaging. […] Repeat infrared images were then obtained under the exact protocol used for obtaining baseline studies.

[5] = tested on: hepatitis C virus; experiment: DNP with interferon-alpha, chronic hepatitis C (Example 10); format: in vivo, human
Method: Pretreatment protocol: each evening prior to treatment the patient was instructed not to eat after 7 pm and dress in cotton clothes. Approximately 6 hours prior to intravenous DNP administration they were to be given 1.5 million units of subcutaneous interferon-alpha every 3rd day. Repeat blood work, including CBC and platelet count, AST, ALT, and hepatitis C-RNA levels would be initially obtained at 48 hours and weekly thereafter. No efforts were to be made to prevent body heat loss. A single intravenous line was placed with a 21-gauge interacath. Heart rate, rectal thermistor, and VO2 monitoring was conducted during therapy as outlined.
Treatment procedure: the patient presented themself for outpatient treatment and was given a subcutaneous dose of 1.5 million units of interferon-alpha. Approximately 6 hours thereafter, at 1 pm, a baseline VO2 recording of 5 minutes was 160 cc/min. They were infused with 1 mg/kg DNP over a 2 minute period. At 20 minutes, their VO2 increased and stabilized at approximately 210 cc/min. A second dose of 1 mg/kg DNP was infused and the VO2 peaked 20 minutes later at 250 cc/min. An additional dose of 2.0 mg/kg DNP was given 30 minutes following the second dose. […] The patient's rectal temperature increased and never exceeded 1.3° C. above their normal baseline. Two hours after their last dose of DNP, their VO2 declined to 280 cc/min. An additional 2 mg/kg dose of DNP was administered. The patients VO2 increased and stabilized 20 minutes thereafter to a level of 420 cc/min. […] Throughout treatment the patient was permitted to drink fluids ad libitum. […] The 5 day treatment protocol was repeated after a 2 day “DNP rest period”. This regimen was repeated times 3. Subcutaneous interferon-alpha was administered for a total of 10 weeks.

[6] = tested on: Normal rat liver; experiment: reactive oxygen species formation in rat liver infused with DNP; conditions: upon cessation of uncoupling (FIG. 9)
[7] = tested on: musculocutaneous flap; experiment: musculocutaneous flap skin survival after DNP; format: in vivo; conditions: after induction of heat shock proteins by DNP (FIG. 23)
Source text: as §1

[8] = tested on: chronically HIV infected HUT-78 cells; experiment: in vitro inactivation of chronically HIV infected cells; format: cell-based; conditions: varying concentrations of DNP (FIG. 16)
Source text: Clinical assessment and treatment evaluation: HIV and HIV-infected T cells are known to be more sensitive to killing by heat than uninfected lymphocytes. Susceptibility to heat killing is enhanced with increased oxygen free radical production. Acute and chronically infected cells have decreased levels of manganous superoxide dismutase (MnSOD) activity. MnSOD is located exclusively in mitochondria. Mathematical modeling of human HIV production and CD4+ T cell turnover predicts that reducing both free virus and actively infected cells by a minimum of 40% with 1 hour of 42° C. therapeutic hyperthermia every third day will promote recovery of the uninfected T-cell population. Human HIV studies with extracorporeal hyperthermia of 41-42° C. have reported isolated cases of extended patient survival, elimination of detectable virus, and improvement of Kaposi's sarcoma lesions. DNP is known to generate intracellular hyperthermia and oxygen free radicals from the level of the inner mitochondrial membrane. Studies on in vitro inactivation of chronically HIV infected HUT-78 cells by various concentrations of DNP are graphically represented in FIG. 16.

For `O=[N+]([O-])c1ccc(O)c([N+](=O)[O-])c1` [DNP, 2,4-dinitrophenol], the “effect of DNP pretreatment before hepatic ischemic injury” value [1] is given as “protective effect”, the hyperthermia [2] is given as “up to 49 °C” and the “serial imaging of hepatic and bone cysts” value ([3]; 2 and 4 weeks post treatment) is given as “hepatic and bone cyst shrinkage with increased density”. For the same molecule, the “magnetic resonance imaging of cysts” value ([3]; 4 months) was “complete cyst disappearance in the liver and bone”, the “bilateral global breast temperature increase” value ([4]; DNP enhanced infrared imaging) was “approximately 0.5 °C” and the “increase in temperature in the palpable right breast lesion” value ([4]; DNP enhanced infrared imaging) was 2.5 °C. The “increase in heat production above the DNP baseline increase” value ([4]; lesion versus global breast increase of 0.5° C.) was 5 fold, the ALT ([5]; 18 months after therapy) was “normalization” and the HCV viral genome ([5]; 18 months after therapy) was “remained cleared from their bloodstream”. The “decrease of hepatitis C-RNA viral load” value ([5]; after 48 hours, DNP with interferon-alpha) was “approximately 2 logs”, the “increase of alanine transaminase (ALT) levels” value ([5]; at 48 hours, elevated until week 3) was 7 fold and the “increase of alkaline phosphatase levels” value ([5]; at 48 hours, pretreatment levels at day 7) was 2 fold. For the same molecule, the “CBC, bilirubin, and blood urea nitrogen (BUN)” value ([5]; during treatment) was “remained within normal limits”, the “further decrease of viral load” value ([5]; over the next 5 days) was “an additional log” and the HCV-RNA ([5]; week 2 and thereafter) was “undetectable”. For the same molecule, the “formation of reactive oxygen species” value [6] was “threefold”, the “musculocutaneous flap skin survival” value [7] was “improved musculocutaneous flap skin survival” and the “killing of chronically HIV infected HUT-78 cells” value [8] was “killing of chronically HIV infected HUT-78 cells”.
